In brackets after ≈: the same amount, converted by molar mass. Where a name gives a salt, the structure may show the parent alone.
Experiments:
[1] = tested on: voltage operated calcium channels; experiment: inhibition of depolarization-stimulated 45Ca uptake into brain synaptosomes; assay type: biochemical, male Wistar rat; conditions: inhibition of K+-stimulated 45Ca uptake, rat cerebral cortex synaptosomes (P2), 15 s incubation
Text: The pharmacological properties of the compounds of the invention can be illustrated by determining their capability to inhibit calcium uptake into brain synaptosomes.
Depolarization of neuronal membranes leads to an opening of socalled `voltage operated calcium channels` (VOC) in the membranes which allows a massive influx of calcium from the extracellular space. A crude synaptosomal preparation (socalled P2 fraction) contains small vesicles surrounded by neuronal membrane and it is possible in such a preparation to study a depolarization-induced opening of VOC.
A male Wistar rat is decapitated and the cerebral cortex removed and homogenized in 20 ml. of ice-cold 0.32 M sucrose using a glass homogenizer with a teflon pestle. All subsequent steps for isolation of synaptosomes are done at 0°-4° C. The homogenate is centrifuged at 1000×g for 10 min and the resulting supernatant is re-centrifuged at 18000×g for 20 min. This pellet (P2) is resuspended in 0.32 M sucrose (10 ml per g of original tissue) with a teflon pestle.
The tubes are pre-incubated for 30 min on ice and then for 6 min at 37° C. in a water bath.
The incubation is continued for 15 s.
The amount of radioactivity on the filter disc is determined by liquid scintillation spectrometry.
Test substances are dissolved in 10 ml of 48% ethanol at a concentration of 0.44 mg/ml. Dilutions are made in 48% ethanol to give final concentrations of 0.1, 0.3, 1, 3 and 0 10 μg/ml. Experiments are performed in duplicate. Controls for depolarized and nondepolarized samples are included in the assay and test substances are only tested in depolarized samples.
The IC50 value is estimated from dose response curves.

[2] = tested on: peripheral calcium uptake, e.g. in blood vessels and the heart; conditions: cited from earlier work

Question: Which IC50 [1] does the source give for CCN1CC[C@@H](c2ccc(F)cc2)[C@H](COc2ccc(C(C)(C)C)cc2)C1.Cl (relative stereo) [trans-1-ethyl-4-(4-fluorophenyl)-3-(4-t-butylphenoxymethyl)piperidine hydrochloride] here?
Answer: 2.5 µg/mL

Question: Which IC50 [1] does the source give for CCCCN1CC[C@@H](c2ccc(F)cc2)[C@H](COc2ccc3c(c2)OCO3)C1 (single isomer, unassigned) here?
Answer: 1.9 µg/mL (≈ 4.93 µM)

Question: Which IC50 [1] does the source give for CCCCN1CC[C@@H](c2ccc(F)cc2)[C@H](COc2ccc(OC)cc2)C1 (single isomer, unassigned) here?
Answer: 2.3 µg/mL (≈ 6.19 µM)

Question: With CCCCCN1CC[C@@H](c2ccc(F)cc2)[C@H](COc2ccc3c(c2)OCO3)C1 (single isomer, unassigned) as the compound, how does the IC50 [1] read?
Answer: 1.5 µg/mL (≈ 3.75 µM)

Question: For CCCCCN1CC[C@@H](c2ccccc2)[C@H](COc2ccc3c(c2)OCO3)C1 (single isomer, unassigned), which IC50 [1] is on record?
Answer: 2.4 µg/mL (≈ 6.29 µM)

Question: With CCCCCN1CC[C@@H](c2ccc(F)cc2)[C@H](COc2ccc3c(c2)CCCC3)C1 (single isomer, unassigned) as the compound, how does the IC50 [1] read?
Answer: 0.4 µg/mL (≈ 0.977 µM)

Question: With C=CCN1CC[C@@H](c2ccc(F)cc2)[C@H](COc2ccc3c(c2)OCO3)C1 (single isomer, unassigned) [(-)--trans-4-(-4-fluorophenyl)-3-(3,4-methylenedioxyphenoxymethyl)-1-allyl-piperidine hydrochloride] as the compound, how does the IC50 [1] read?
Answer: 0.8 µg/mL

Question: With COc1ccc(OC[C@@H]2CN(C(C)C)CC[C@H]2c2ccc(F)cc2)cc1.Cl (single isomer, unassigned) [(-)-trans-1-isopropyl-4-(4-fluorophenyl)-3-(4-methoxyphenoxymethyl)-piperidine hydrochloride] as the compound, how does the IC50 [1] read?
Answer: 4.3 µg/mL

Question: Which IC50 [1] does the source give for CCCCCCCCN1CC[C@@H](c2ccc(F)cc2)[C@H](COc2ccc3c(c2)OCO3)C1 (single isomer, unassigned) [(-)-trans-4-(-4-fluoropheny1)-3-(3,4-methylenedioxyphenoxymethyl)-1-octylpiperidine hydrochloride] here?
Answer: 2.2 µg/mL

Question: With COc1ccc([C@@H]2Sc3ccccc3N(CCN(C)C)C(=O)[C@@H]2OC(C)=O)cc1 [Diltiazem] as the compound, how does the “activity against peripheral calcium uptake” value [2] read?
Answer: have activity

Question: For COC(=O)C1=C(C)NC(C)=C(C(=O)OC)C1c1ccccc1[N+](=O)[O-] [Nifedipin], which “activity against peripheral calcium uptake” value [2] is on record?
Answer: have activity

Question: With COc1ccc(CCN(C)CCCC(C#N)(c2ccc(OC)c(OC)c2)C(C)C)cc1OC (stereo not drawn) [Verapamil] as the compound, how does the “activity against peripheral calcium uptake” value [2] read?
Answer: have activity
